Data set [1] is described as follows: Cytotoxicity against Wistar rat splenocytes assessed as cell viability at 0.1 uM after 48 hrs by MTT assay. Format: tissue-based. Particulars: splenocyte.
Data set [2] relates to Splenocyte. The data set can be described thus: Immunomodulatory activity in Wistar rat splenocytes assessed as decrease in LPS-induced cell proliferation at 500 uM after 48 hrs by MTT assay. Format: functional, cell-based. On the technique in general: Tetrazolium assays rely on reduction of a dye to a coloured formazan, in cell work by metabolically active cells.
A short description of data set [3]: Cytotoxicity against Wistar rat splenocytes assessed as reduction in cell viability at 100 to 500 uM after 24 hrs by MTT assay. The data set is classed as tissue-based. Particulars: splenocyte, dose 100-500 µM.
Data set [4] has as its system Splenocyte. The data set can be described thus: Immunomodulatory activity in Wistar rat splenocytes assessed as decrease in LPS-induced cell proliferation at 0.1 to 10 uM after 48 hrs by MTT assay. The data set is classed as functional, cell-based. Particulars: dose 0.1-10 µM.
In data set [5] the test system is Splenocyte. The data set can be described thus: Immunomodulatory activity in Wistar rat splenocytes assessed as decrease in ConA-induced cell proliferation at 0.1 to 500 uM after 48 hrs by MTT assay. Format: functional, cell-based. Particulars: dose 0.1-500 µM.
The nature of data set [6]: Cytotoxicity against Wistar rat splenocytes assessed as cell viability at 100 uM after 48 hrs by MTT assay relative to control. Format: tissue-based, Splenocyte. Particulars: read-out: Activity.
A short description of data set [7]: Cytotoxicity against Wistar rat splenocytes assessed as reduction in cell viability at 0.1 to 500 uM after 48 hrs by MTT assay. Particulars: splenocyte, dose 0.1-500 µM. The data set is classed as tissue-based.
Data set [8] in a line: Cytotoxicity against Wistar rat splenocytes assessed as cell viability at >10 uM after 24 to 48 hrs by MTT assay. The data set is classed as tissue-based. Particulars: splenocyte, time 24-48 hrs.
Data set [9] relates to Splenocyte. The experiment in a line: Immunomodulatory activity in Wistar rat splenocytes assessed as decrease in LPS-induced cell proliferation at 0.1 to 100 uM after 48 hrs by MTT assay. Format: functional, cell-based. Particulars: dose 0.1-100 µM.
Data set [10] can be described thus: Cytotoxicity against Wistar rat splenocytes assessed as reduction in cell viability at 100 uM after 48 hrs by MTT assay relative to control. Format: tissue-based. Particulars: splenocyte.

Calls of active or inactive are those of the source. The calls are words filed in the database; no cut-off is given here.

Turning to `C[C@H]1CCC2=C(C(C)(C)O)CC(C)(C)C[C@@H]21` (relative stereo), the values for the Activity result in data set [1] and in data set [3] were “Non-Toxic” and “Toxic”, respectively. The outcome in the data set on Splenocyte [2] was inactive. The outcome in the data set on Splenocyte [4] and with Splenocyte [5] was Active.

Regarding `C[C@@H]1/C=C/C(C)(C)[C@H](O)CC/C(CO)=C/CC1` (relative stereo), in the data set with Splenocyte [2], the outcome was inactive. In addition, the Activity entry in data set [3] and in data set [7] was “Toxic” each time. For the same molecule, the viability at 48 h, 100 µM in [6] is 60%. Further, the result in the data set on Splenocyte [4] and in the data set on Splenocyte [5] was Active.

On to `C[C@@H]1/C=C/[C@H](C(C)(C)O)CC/C(CO)=C/CC1` (relative stereo), for which, in the data set with Splenocyte [2], the outcome was inactive. The Activity result in [3] and in data set [8] was “Toxic” throughout. Moreover, the outcome in the data set with Splenocyte [4] and in the data set on Splenocyte [5] was Active.

For the molecule `C/C1=C\[C@@H]2[C@@H](CC/C(CO)=C/CC1)C2(C)C` (relative stereo), in the data set with Splenocyte [9], the outcome was inactive. For the same molecule, the Activity entry in data set [3] and in [8] was “Toxic” throughout. In addition, in the data set with Splenocyte [5], the result was Active.

For `C[C@@H]1C[C@H]2[C@@H]3CCC4=CC(=O)C=C[C@]4(C)[C@@]3(F)[C@@H](O)C[C@]2(C)[C@@]1(O)C(=O)CO` [DEXAMETHASONE], the Activity in data set [10] was found to be 65%.

For the origin of these results see ChEMBL document CHEMBL4673339, “Immunomodulatory Constituents of Conocephalum conicum (Snake Liverwort) and the Relationship of Isolepidozenes to Germacranes and Humulanes” (J Nat Prod, 2020).
